ChEMBL document CHEMBL4138123, “Design, synthesis and biological evaluation of novel pyrazolochalcones as potential modulators of PI3K/Akt/mTOR pathway and inducers of apoptosis in breast cancer cells” (Eur J Med Chem, 2017)

Tests used:
Type in all cases: functional
[1] = tested on: NCI-H322M; experiment: Cytotoxicity against human NCI-H322M cells assessed as cell growth at 100 uM after 48 hrs by sulforhodamine B assay relative to control; conditions: read-out: Activity
[2] = tested on: NCI-H460; experiment: Cytotoxicity against human NCI-H460 cells assessed as cell growth at 100 uM after 48 hrs by sulforhodamine B assay relative to control; conditions: NCI-H460, 48 h, read-out: Activity
[3] = tested on: TK-10; experiment: Cytotoxicity against human TK10 cells assessed as cell growth at 10 uM after 48 hrs by sulforhodamine B assay relative to control; conditions: TK-10, 48 h, read-out: Activity
[4] = tested on: HOP-62; experiment: Cytotoxicity against human HOP62 cells assessed as cell growth at 100 uM after 48 hrs by sulforhodamine B assay relative to control; conditions: HOP-62, 48 h, read-out: Activity
[5] = tested on: A498; experiment: Cytotoxicity against human A498 cells assessed as cell growth at 10 uM after 48 hrs by sulforhodamine B assay relative to control; conditions: A498, 48 h, read-out: Activity
[6] = tested on: HCT-15; experiment: Cytotoxicity against human HCT15 cells assessed as cell growth at 10 uM after 48 hrs by sulforhodamine B assay relative to control; conditions: HCT-15, 48 h, read-out: Activity
[7] = tested on: A498; experiment: Cytotoxicity against human A498 cells assessed as cell growth at 1 uM after 48 hrs by sulforhodamine B assay relative to control; conditions: A498, 48 h, read-out: Activity
[8] = tested on: PC-3; experiment: Cytotoxicity against human PC3 cells assessed as cell growth at 1 uM after 48 hrs by sulforhodamine B assay relative to control; conditions: PC-3, 48 h, read-out: Activity
[9] = tested on: SK-MEL-28; experiment: Cytotoxicity against human SK-MEL-28 cells assessed as cell growth at 0.1 uM after 48 hrs by sulforhodamine B assay relative to control; conditions: SK-MEL-28, 48 h, read-out: Activity
[10] = tested on: RXF 393; experiment: Cytotoxicity against human RXF393 cells assessed as growth inhibition after 48 hrs by sulforhodamine B assay; conditions: RXF 393, 48 h
[11] = tested on: SK-MEL-28; experiment: Cytotoxicity against human SK-MEL-28 cells assessed as cell growth at 10 uM after 48 hrs by sulforhodamine B assay relative to control; conditions: SK-MEL-28, 48 h, read-out: Activity
[12] = tested on: UACC-257; experiment: Cytotoxicity against human UACC257 cells assessed as cell growth at 100 uM after 48 hrs by sulforhodamine B assay relative to control; conditions: UACC-257, 48 h, read-out: Activity
[13] = tested on: OVCAR-5; experiment: Cytotoxicity against human OVCAR5 cells assessed as cell growth at 0.01 uM after 48 hrs by sulforhodamine B assay relative to control; conditions: OVCAR-5, 48 h, read-out: Activity
[14] = tested on: HCT-116; experiment: Cytotoxicity against human HCT116 cells assessed as growth inhibition after 48 hrs by sulforhodamine B assay; conditions: HCT-116, 48 h
[15] = tested on: HL-60(TB); experiment: Cytotoxicity against human HL-60(TB) cells assessed as cell growth at 10 uM after 48 hrs by sulforhodamine B assay relative to control; conditions: HL-60, 48 h, read-out: Activity
[16] = tested on: HT-29; experiment: Cytotoxicity against human HT-29 cells assessed as cell growth at 0.1 uM after 48 hrs by sulforhodamine B assay relative to control; conditions: HT-29, 48 h, read-out: Activity
[17] = tested on: SN12C; experiment: Cytotoxicity against human SN12C cells assessed as cell growth at 1 uM after 48 hrs by sulforhodamine B assay relative to control; conditions: read-out: Activity
[18] = tested on: NCI-H460; experiment: Cytotoxicity against human NCI-H460 cells assessed as cell growth at 0.01 uM after 48 hrs by sulforhodamine B assay relative to control; conditions: NCI-H460, 48 h, read-out: Activity
[19] = tested on: NCI-H322M; experiment: Cytotoxicity against human NCI-H322M cells assessed as cell growth at 0.1 uM after 48 hrs by sulforhodamine B assay relative to control; conditions: read-out: Activity
[20] = tested on: UO-31; experiment: Cytotoxicity against human UO31 cells assessed as cell growth at 0.1 uM after 48 hrs by sulforhodamine B assay relative to control; conditions: UO-31, 48 h, read-out: Activity
[21] = tested on: MDA-MB-468; experiment: Cytotoxicity against human MDA-MB-468 cells assessed as growth inhibition after 48 hrs by sulforhodamine B assay; conditions: MDA-MB-468, 48 h
[22] = tested on: DU-145; experiment: Cytotoxicity against human DU145 cells assessed as cell growth at 10 uM after 48 hrs by sulforhodamine B assay relative to control; conditions: DU-145, 48 h, read-out: Activity
[23] = tested on: MCF7; experiment: Cytotoxicity against human MCF7 cells assessed as cell growth at 0.01 uM after 48 hrs by sulforhodamine B assay relative to control; conditions: MCF7, 48 h, read-out: Activity
[24] = tested on: SF-268; experiment: Cytotoxicity against human SF268 cells assessed as cell growth at 0.01 uM after 48 hrs by sulforhodamine B assay relative to control; conditions: SF-268, 48 h, read-out: Activity
[25] = tested on: NCI-H522; experiment: Cytotoxicity against human NCI-H522 cells assessed as growth inhibition after 48 hrs by sulforhodamine B assay; conditions: NCI-H522, 48 h
[26] = tested on: SR; experiment: Cytotoxicity against human SR cells assessed as cell growth at 0.1 uM after 48 hrs by sulforhodamine B assay relative to control; conditions: read-out: Activity
[27] = tested on: RPMI-8226; experiment: Cytotoxicity against human RPMI8226 cells assessed as cell growth at 10 uM after 48 hrs by sulforhodamine B assay relative to control; conditions: RPMI-8226, 48 h, read-out: Activity
[28] = tested on: HOP-62; experiment: Cytotoxicity against human HOP62 cells assessed as cell growth at 0.01 uM after 48 hrs by sulforhodamine B assay relative to control; conditions: HOP-62, 48 h, read-out: Activity
[29] = tested on: Hs-578T; experiment: Cytotoxicity against human Hs 578T cells assessed as cell growth at 1 uM after 48 hrs by sulforhodamine B assay relative to control; conditions: read-out: Activity
[30] = tested on: MOLT-4; experiment: Cytotoxicity against human MOLT4 cells assessed as cell growth at 100 uM after 48 hrs by sulforhodamine B assay relative to control; conditions: MOLT-4, 48 h, read-out: Activity
[31] = tested on: COLO 205; experiment: Cytotoxicity against human COLO205 cells assessed as growth inhibition after 48 hrs by sulforhodamine B assay; conditions: COLO 205, 48 h
[32] = tested on: KM12; experiment: Cytotoxicity against human KM12 cells assessed as cell growth at 0.01 uM after 48 hrs by sulforhodamine B assay relative to control; conditions: KM12, 48 h, read-out: Activity
[33] = tested on: UACC-62; experiment: Cytotoxicity against human UACC62 cells assessed as cell growth at 0.01 uM after 48 hrs by sulforhodamine B assay relative to control; conditions: UACC-62, 48 h, read-out: Activity
[34] = tested on: HCT-15; experiment: Cytotoxicity against human HCT15 cells assessed as cell growth at 0.1 uM after 48 hrs by sulforhodamine B assay relative to control; conditions: HCT-15, 48 h, read-out: Activity
[35] = tested on: UACC-257; experiment: Cytotoxicity against human UACC257 cells assessed as cell growth at 10 uM after 48 hrs by sulforhodamine B assay relative to control; conditions: UACC-257, 48 h, read-out: Activity
[36] = tested on: SK-MEL-5; experiment: Cytotoxicity against human SK-MEL-5 cells assessed as cell growth at 10 uM after 48 hrs by sulforhodamine B assay relative to control; conditions: SK-MEL-5, 48 h, read-out: Activity

`COc1ccc(-c2cc(/C=C/C(=O)c3ccc(OC)c(OC)c3)[nH]n2)cc1` showed a growth at 100 µM [1] of -98%, a growth at 100 µM [2] of -63% and a growth at 10 µM [3] of -59%. The growth at 100 µM [4] was -71%, the growth at 10 µM [5] was -57% and the growth at 10 µM [6] was -53%. It also gave a growth at 1 µM [7] of 69%, a growth at 1 µM [8] of 71% and a growth at 0.1 µM [9] of 98%. For the same molecule, the GI50 [10] was 1390 nM, the LC50 (concentration killing 50% of cells) [10] was 6200 nM and the TGI [10] was 2940 nM. The growth at 10 µM [11] was -95%, the growth at 100 µM [12] was -100% and the growth at 0.01 µM [13] was 93%. It also gave a GI50 [14] of 1010 nM, an LC50 [14] of 6080 nM and a TGI [14] of 2480 nM. It also gave a growth at 10 µM [15] of -21%, a growth at 0.1 µM [16] of 101% and a growth at 1 µM [17] of 80%. For the same molecule, the growth at 0.01 µM [18] was 100%, the growth at 0.1 µM [19] was 94% and the growth at 0.1 µM [20] was 87%. The GI50 [21] was 1220 nM, the LC50 [21] was 7120 nM and the TGI [21] was 2940 nM. The growth at 10 µM [22] was -91%, the growth at 0.01 µM [23] was 91% and the growth at 0.01 µM [24] was 101%. The GI50 [25] was 410 nM, the LC50 [25] was 5910 nM and the TGI [25] was 1390 nM. For the same molecule, the growth at 0.1 µM [26] was 106%, the growth at 10 µM [27] was -56% and the growth at 0.01 µM [28] was 97%. It also gave a growth at 1 µM [29] of 81%, a growth at 100 µM [30] of -33% and a GI50 [31] of 1760 nM. The LC50 [31] was 6160 nM, the TGI [31] was 3300 nM and the growth at 0.01 µM [32] was 105%. The growth at 0.01 µM [33] was 99%, the growth at 0.1 µM [34] was 97% and the growth at 10 µM [35] was -67%. The growth at 10 µM [36] was -66%.
